Experimental data taken from patent publication US20170275270A1, “BENZYL SUBSTITUTED INDAZOLES” (Bayer Pharma Aktiengesellschaft, priority 2014, published 2017).
Counter-ions that a name gives are not always drawn. Like-named read-outs stand apart in the source and are kept apart here.

Legend:
[1] = test system: HeLa human cervical tumor cells; assay: Proliferation assay (HeLa+Paclitaxel); conditions: read-out: Biological Assay 3: HeLa + Paclitaxel IC50, 3 nM paclitaxel, crystal violet;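 note: compounds at 0.001-10 µM added 4 h after paclitaxel, 92 h exposure, absorbance normalized to zero-point plate (0%) and untreated cells (100%), IC50 from 4-parameter fit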
[2] = molecular target: T1, catalytic domain of human Bub1 (amino acids 704-1085) (Homo sapiens, UniProt O43683); assay: Bub1 kinase assay (TR-FRET); type: biochemical
T1 construct: catalytic domain of human Bub1 (amino acids 704-1085); His6 (N); made in house; host or cells: Hi5 insect cells
In short: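 Compounds from 2 mM DMSO stocks, serially diluted 1:3.4, incubated with enzyme at 22° C for 60 min. Stopped with EDTA, then 1 h with streptavidin-XL665, anti-phosphoserine antibody and Eu-labelled anti-mouse IgG. Phosphorylated biotin-peptide read by TR-FRET; IC50 by 4-parameter logistic fit.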

Bub1 = Bub1 (Homo sapiens, UniProt O43683); assay: Formation-Assay: phosphorylation status of histone 2A by inhibition of kinase activity of Bub1; type: cell-based; conditions: 16 h
Protocol: Biological Assay 4.1: Formation-Assay
Cell-Based Mechanistic Assay: Changes of Phosphorylation Status of Histone 2A by Inhibition of Kinase Activity of Bub1
This assay determines the suppression of histone 2A phosphorylation by a Bub1 kinase inhibitor during co-treatment with Nocodazole. 25000 cells (cells were ordered from ATCC) were seeded in 96 well plate for 5 h at 37° C. Cells were treated with Nocodazole (1 μg/ml) and varying concentrations (between 3 nM and 10 μM) of test compounds for 16 h. Cells were fixed (20 min, Fixing solution R&D), washed three times with PBS and blocked with Odyssey blocking buffer before incubating with the primary antibody against phosphorylated H2A (5 μg/ml ABIN482721) overnight at 2-8° C. After washing, secondary IRDye-labeled antibody mix with cell stains was added for 1 h and washed again with PBS. Plates were scanned with LiCor Odyssey Infrared Imager CLx at 800 nm for P-H2A and at 700 nm for cell stains Draq5/Sapphire. The quotient of 800 nm and 700 nm for Nocodazole only treated cells was set as 100% and the quotient of 800 nm and 700 nm of untreated cells was set as 0%.
Histone H2A is an immediate intracellular substrate of Bub1 kinase. Determination of the phosphorylation status of Histone H2A provides a direct measure of the intracellular activity of Bub1 kinase.

HeLa = assay: Proliferation assay (HeLa cell line);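 note: crystal violet staining of cell number, scaled between a plate stained before dosing (0%) and cells left untreated (100%), compounds tested at 0.001-10 µM, IC50 via 4-parameter fit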
[3] = Biological Assay 1: Bub1 kinase assay median IC50, 10 μM ATP
[4] = Biological Assay 4.1: H2A Formation IC50, co-treatment with Nocodazole 1 μg/ml
[5] = Homo sapiens, 96 h, read-out: Biological Assay 2: Proliferation assay (HeLa cell line) median IC50
[6] = 10 μM ATP, read-out: Biological Assay 1: Bub1 kinase assay median IC50

Chain of Bub1 (O43683 whole entry): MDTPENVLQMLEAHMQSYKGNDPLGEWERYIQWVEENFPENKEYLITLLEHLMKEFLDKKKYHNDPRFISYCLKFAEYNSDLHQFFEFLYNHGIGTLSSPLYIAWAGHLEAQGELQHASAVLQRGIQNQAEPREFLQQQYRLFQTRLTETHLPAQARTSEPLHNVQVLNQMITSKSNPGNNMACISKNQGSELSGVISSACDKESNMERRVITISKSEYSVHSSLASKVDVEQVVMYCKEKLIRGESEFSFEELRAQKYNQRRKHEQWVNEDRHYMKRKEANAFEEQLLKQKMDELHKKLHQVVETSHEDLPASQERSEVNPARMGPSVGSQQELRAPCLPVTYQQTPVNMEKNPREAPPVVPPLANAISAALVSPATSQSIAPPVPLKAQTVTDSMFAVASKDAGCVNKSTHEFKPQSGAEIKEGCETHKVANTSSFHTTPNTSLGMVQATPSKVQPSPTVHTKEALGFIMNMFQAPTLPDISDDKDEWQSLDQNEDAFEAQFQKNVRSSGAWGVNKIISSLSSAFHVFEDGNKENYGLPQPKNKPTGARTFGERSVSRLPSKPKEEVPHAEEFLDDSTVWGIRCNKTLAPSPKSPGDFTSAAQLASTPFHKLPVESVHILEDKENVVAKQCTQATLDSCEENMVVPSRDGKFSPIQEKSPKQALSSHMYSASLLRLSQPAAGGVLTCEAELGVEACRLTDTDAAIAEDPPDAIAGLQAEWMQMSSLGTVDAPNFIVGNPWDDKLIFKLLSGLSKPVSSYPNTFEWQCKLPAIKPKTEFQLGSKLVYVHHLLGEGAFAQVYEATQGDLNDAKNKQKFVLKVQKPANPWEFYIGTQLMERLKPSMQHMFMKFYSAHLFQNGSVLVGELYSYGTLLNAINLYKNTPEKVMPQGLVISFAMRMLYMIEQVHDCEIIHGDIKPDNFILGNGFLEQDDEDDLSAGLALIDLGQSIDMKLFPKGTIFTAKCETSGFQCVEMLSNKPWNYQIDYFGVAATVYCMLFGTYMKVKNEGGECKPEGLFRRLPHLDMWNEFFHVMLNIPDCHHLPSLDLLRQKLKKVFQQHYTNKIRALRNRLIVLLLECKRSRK
T1 sequence (O43683 704-1085): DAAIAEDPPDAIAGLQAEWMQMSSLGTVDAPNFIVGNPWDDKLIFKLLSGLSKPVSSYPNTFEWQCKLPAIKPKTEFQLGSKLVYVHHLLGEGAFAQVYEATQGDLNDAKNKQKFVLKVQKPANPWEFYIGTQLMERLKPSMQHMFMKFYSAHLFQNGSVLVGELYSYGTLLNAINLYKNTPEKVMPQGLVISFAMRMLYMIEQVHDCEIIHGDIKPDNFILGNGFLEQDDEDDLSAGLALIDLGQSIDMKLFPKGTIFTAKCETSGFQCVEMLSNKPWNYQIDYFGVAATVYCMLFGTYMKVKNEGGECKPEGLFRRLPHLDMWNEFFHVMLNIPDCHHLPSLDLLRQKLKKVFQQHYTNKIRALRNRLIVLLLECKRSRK

IC50 [1] | IC50 [2, 3] | IC50 (Bub1; [4]) | IC50 (HeLa; [5]) | IC50 [2, 6] | Compound | IC50 (Bub1; co-treatment with Nocodazole 1 μg/ml, read-out: Biological Assay 4.1: H2A Formation IC50) | IC50 (HeLa; read-out: Biological Assay 2: Proliferation assay (HeLa cell line) median IC50, 4 days, crystal violet)
450 nM | 6.3 nM | 570 nM | 3500 nM | – | CCOc1cc(F)c(Cn2nc(-c3ncc(CC[S@](C)(=N)=O)c(Nc4ccncc4)n3)c3ccccc32)c(F)c1 [Example 2-7-1, 2-[1-(4-ethoxy-2,6-difluorobenzyl)-1H-indazol-3-yl]-5-[2-(S-methylsulfonimidoyl)ethyl]-N-(pyridin-4-yl)pyrimidin-4-amine] | – | –
130 nM | 290 nM | 57 nM | 1000 nM | – | CCOc1cc(F)c(Cn2nc(-c3nc4c(c(Nc5ccncc5C)n3)CCN(Cc3ccccc3)C4)c3ccccc32)c(F)c1 [Example 2-12-16, 7-benzyl-2-[1-(4-ethoxy-2,6-difluorobenzyl)-1H-indazol-3-yl]-N-(3-methylpyridin-4-yl)-5,6,7,8-tetrahydropyrido[3,4-d]pyrimidin-4-amine] | – | –
680 nM | – | 2.8 nM | 10000 nM | 9.6 nM | CCOc1cc(F)c(Cn2nc(-c3nc4c(c(Nc5ccncc5F)n3)CCC4)c3ccccc32)c(F)c1 [Example 2-14-1, 2-[1-(4-ethoxy-2,6-difluorobenzyl)-1H-indazol-3-yl]-N-(3-fluoropyridin-4-yl)-6,7-dihydro-5H-cyclopenta[d]pyrimidin-4-amine] | – | –
100 nM | – | 22 nM | > 10000 nM | 98 nM | CCOc1cc(F)c(Cn2nc(-c3nc4c(c(Nc5ccnc(C)n5)n3)CC(C)(C)CC4)c3ccccc32)c(F)c1 [Example 2-12-66, 2-[1-(4-ethoxy-2,6-difluorobenzyl)-1H-indazol-3-yl]-6,6-dimethyl-N-(2-methylpyrimidin-4-yl)-5,6,7,8-tetrahydroquinazolin-4-amine] | – | –
190 nM | – | 2.7 nM | 2300 nM | 52 nM | CCOc1cc(F)c(Cn2nc(-c3ncc(CC4CNC4)c(Nc4ccnc(C(F)F)c4)n3)c3ccccc32)c(F)c1 [Example 2-9-9, 5-(azetidin-3-ylmethyl)-N-[2-(difluorometh-yl)pyridin-4-yl]-2-[1-(4-ethoxy-2,6-difluorobenzyl)-1H-indazol-3-yl]pyrimidin-4-amine, salt with hydrochloric acid] | – | –
930 nM | – | 2300 nM | > 10000 nM | 10 nM | OCCOc1cc(F)c(Cn2nc(-c3nc(CN4CCOCC4)cc(Nc4ccncc4)n3)c3ccccc32)c(F)c1 [Example 2-6-38, 2-[3,5-difluoro-4-({3-[4-(morpholin-4-ylmethyl)-6-(pyridin-4-ylamino)pyrimidin-2-yl]-1H-indazol-1-yl}methyl)phenoxy]ethanol] | – | –
400 nM | – | 370 nM | 8300 nM | 520 nM | CCOc1cc(F)c(Cn2nc(-c3nc(CN4CCOCC4)cc(Nc4ccnc(S(C)(=O)=O)c4)n3)c3ccccc32)c(F)c1 [Example 2-12-33, 2-[1-(4-ethoxy-2,6-difluorobenzyl)-1H-indazol-3-yl]-N-[2-(methylsulfonyl)pyridin-4-yl]-6-(morpholin-4-ylmethyl)pyrimidin-4-amine] | – | –
340 nM | 95 nM | 1200 nM | 9300 nM | – | CCOc1cc(F)c(Cn2nc(-c3ncc(CCCCN4CCCC(F)(F)C4)c(Nc4ccncc4)n3)c3ccccc32)c(F)c1 [Example 2-2-17, 5-[4-(3,3-difluoropiperidin-1-yl)butyl]-2-[1-(4-ethoxy-2,6-difluorobenzyl)-1H-indazol-3-yl]-N-(pyridin-4-yl)pyrimidin-4-amine] | – | –

The next lines start with the compound.

Compound | IC50 [1] | IC50 [2, 3] | IC50 (Bub1; [4]) | IC50 (HeLa; [5]) | IC50 [2, 6] | IC50 (Bub1; co-treatment with Nocodazole 1 μg/ml, read-out: Biological Assay 4.1: H2A Formation IC50) | IC50 (HeLa; read-out: Biological Assay 2: Proliferation assay (HeLa cell line) median IC50, 4 days, crystal violet)
CCOc1cc(F)c(Cn2nc(-c3ncc(CN)c(Nc4ccncc4)n3)c3ccccc32)c(F)c1 [Example 2-9-5, 5-(aminomethyl)-2-[1-(4-ethoxy-2,6-difluorobenzyl)-1H-indazol-3-yl]-N-(pyridin-4-yl)pyrimidin-4-amine, salt with hydrochloric acid] | 340 nM | – | 1.8 nM | 1800 nM | 14 nM | – | –
CCOc1cc(F)c(Cn2nc(-c3ncc(OCCO)c(Nc4ccncc4)n3)c3ccccc32)c(F)c1 [Example 3-1-1, 2-({2-[1-(4-ethoxy-2,6-difluorobenzyl)-1H-indazol-3-yl]-4-(pyridin-4-ylamino)pyrimidin-5-yl}oxy)ethanol, reference compound] | 1400 nM | 11 nM | 1100 nM | 1500 nM | – | – | –
CCOc1cc(F)c(Cn2nc(-c3nc4c(c(Nc5cc(C)ncn5)n3)CCC4)c3ccccc32)c(F)c1 [Example 2-21-1, 2-[1-(4-ethoxy-2,6-difluorobenzyl)-1H-indazol-3-yl]-N-(6-methylpyrimidin-4-yl)-6,7-dihydro-5H-cyclopenta[d]pyrimidin-4-amine] | 98 nM | – | 1900 nM | 6000 nM | 25 nM | – | –
CCOc1cc(F)c(Cn2nc(-c3nc(CN4CCOCC4)cc(Nc4ccnnc4)n3)c3ccccc32)c(F)c1 [Example 2-12-35, N-{2-[1-(4-ethoxy-2,6-difluorobenzyl)-1H-indazol-3-yl]-6-(morpholin-4-ylmethyl)pyrimidin-4-yl}pyridazin-4-amine] | 590 nM | – | 14 nM | 10000 nM | 17 nM | – | –
CC(=O)Nc1cc(Nc2nc(-c3nn(Cc4c(F)cc(OCCO)cc4F)c4ccccc34)ncc2C2CCN(CC(F)(F)F)CC2)ccn1 [Example 2-6-13, N-{4-[(2-{1-[2,6-difluoro-4-(2-hydroxyethoxy)benzyl]-1H-indazol-3-yl}-5-[1-(2,2,2-trifluoroethyl)piperidin-4-yl]pyrimidin-4-yl)amino]pyridin-2-yl}acetamide] | 390 nM | 53 nM | 8.4 nM | 9700 nM | – | – | –
CCOc1cc(F)c(Cn2nc(-c3nc(CO)cc(Nc4ccncc4C)n3)c3ccccc32)c(F)c1 [Example 2-6-4, {2-[1-(4-ethoxy-2,6-difluorobenzyl)-1H-indazol-3-yl]-6-[(3-methylpyridin-4-yl)amino]pyrimidin-4-yl}methanol] | 170 nM | – | 52 nM | 1400 nM | 9.1 nM | – | –
CCOc1cc(F)c(Cn2nc(-c3ncc(C4CCN(CC(F)(F)F)CC4)c(Nc4ccncc4OC)n3)c3ccccc32)c(F)c1 [Example 2-20-4, 2-[1-(4-ethoxy-2,6-difluorobenzyl)-1H-indazol-3-yl]-N-(3-methoxypyridin-4-yl)-5-[1-(2,2,2-trifluoroethyl)piperidin-4-yl]pyrimidin-4-amine] | 66 nM | 70 nM | 31 nM | 1100 nM | – | – | –
CCOc1cc(F)c(Cn2nc(-c3ncc(C4CCN(CC(F)(F)F)CC4)c(Nc4cc(C)ncc4C)n3)c3ccccc32)c(F)c1 [Example 2-20-6, N-(2,5-dimethylpyridin-4-yl)-2-[1-(4-ethoxy-2,6-difluorobenzyl)-1H-indazol-3-yl]-5-[1-(2,2,2-trifluoroethyl)piperidin-4-yl]pyrimidin-4-amine] | 130 nM | 260 nM | 81 nM | 3200 nM | – | – | –
CCOc1cc(F)c(Cn2nc(-c3ncc(CC4CN(CC(F)(F)F)C4)c(Nc4ccncc4)n3)c3ccccc32)c(F)c1 [Example 2-11-1, 2-[1-(4-ethoxy-2,6-difluorobenzyl)-1H-indazol-3-yl]-N-(pyridin-4-yl)-5-{[1-(2,2,2-trifluoroethyl)azetidin-3-yl]methyl}pyrimidin-4-amine] | 230 nM | 62 nM | 41 nM | > 10000 nM | – | – | –
Cc1nccc(Nc2nc(-c3nn(Cc4c(F)cc(OCCO)cc4F)c4ccccc34)ncc2C2CCN(CC(F)(F)F)CC2)n1 [Example 2-6-16, 2-{3,5-difluoro-4-[(3-{4-[(2-methylpyrimidin-4-yl)amino]-5-[1-(2,2,2-trifluoroethyl)piperidin-4-yl]pyrimidin-2-yl}-1H-indazol-1-yl)methyl]phenoxy}ethanol] | 60 nM | 550 nM | 0.56 nM | > 10000 nM | – | – | –
2-{3,5-difluoro-4-[(3-{5-[2-(methylsulfonyl)ethyl]-4-(eparate-4-ylamino)pyrimidin-2-yl}-1H-indazol-1-yl)methyl]phenoxy}ethanol [Example 2-4-1] | 3600 nM | – | – | – | 12 nM | 96 nM | > 10000 nM
